In patent US12492188B2, “1H-benzo[D]imidazole derivatives as TLR9 inhibitors for the treatment of fibrosis” (BRISTOL-MYERS SQUIBB COMPANY, priority 2020, dated 2025):
Read-outs that look alike come from different tables or passages of the source.

Columns and labels:
Type in all cases: cell-based
human TLR9 = molecular target: T1, human TLR9 (Homo sapiens, UniProt Q9NR96); experiment: TLR9 inhibition reporter assay (HEK-Blue cells, secreted embryonic alkaline phosphatase reporter)
T1 construct: host or cells: HEK-Blue cells (HEK293-derived reporter line)
T1 sequence (Q9NR96 26-1032): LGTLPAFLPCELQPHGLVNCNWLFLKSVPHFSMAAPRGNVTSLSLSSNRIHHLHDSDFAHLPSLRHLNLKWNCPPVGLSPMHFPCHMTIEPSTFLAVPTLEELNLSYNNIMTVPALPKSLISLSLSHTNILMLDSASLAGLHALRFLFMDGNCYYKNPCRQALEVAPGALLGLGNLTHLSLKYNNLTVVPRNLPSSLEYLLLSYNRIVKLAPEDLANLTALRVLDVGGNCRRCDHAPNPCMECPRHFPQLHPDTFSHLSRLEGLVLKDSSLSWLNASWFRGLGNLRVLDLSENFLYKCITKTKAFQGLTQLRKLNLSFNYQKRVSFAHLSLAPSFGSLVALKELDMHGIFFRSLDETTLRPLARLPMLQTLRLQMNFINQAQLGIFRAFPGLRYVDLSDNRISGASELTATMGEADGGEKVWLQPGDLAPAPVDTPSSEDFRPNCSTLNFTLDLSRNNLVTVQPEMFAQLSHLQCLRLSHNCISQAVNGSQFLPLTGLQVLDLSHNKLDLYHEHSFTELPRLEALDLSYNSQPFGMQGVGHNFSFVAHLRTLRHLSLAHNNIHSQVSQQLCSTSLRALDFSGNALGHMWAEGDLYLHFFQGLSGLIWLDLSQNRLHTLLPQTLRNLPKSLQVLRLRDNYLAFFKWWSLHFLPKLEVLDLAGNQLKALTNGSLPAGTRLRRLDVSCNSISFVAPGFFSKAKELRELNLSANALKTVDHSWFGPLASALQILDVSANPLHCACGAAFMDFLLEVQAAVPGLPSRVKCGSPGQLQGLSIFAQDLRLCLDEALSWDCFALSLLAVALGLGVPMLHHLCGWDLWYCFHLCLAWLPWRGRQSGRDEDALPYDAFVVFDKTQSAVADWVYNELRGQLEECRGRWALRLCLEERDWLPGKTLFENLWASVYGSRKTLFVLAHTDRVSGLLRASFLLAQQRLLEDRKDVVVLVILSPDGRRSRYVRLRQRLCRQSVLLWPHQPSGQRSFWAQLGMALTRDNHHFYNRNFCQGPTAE
Procedure, shortened: (§1)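 Cells seeded at 15000 (TLR7), 20,000 (TLR8) or 25,000 (TLR9) per well; compound 0.05 nM–50 μM, 30 min RT pre-incubation. Agonists: gardiquimod 7.5 μM, R848 15.9 μM, ODN2006 5 nM respectively. 22 h, 37 °C; SEAP via HEK-Blue Detection; % inhibition vs agonist+DMSO and known-inhibitor wells.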

human TLR8 = molecular target: T2, human TLR8 (Homo sapiens, UniProt Q9NR97); experiment: TLR8 inhibition reporter assay (HEK-Blue cells, secreted embryonic alkaline phosphatase reporter); conditions: HEK-Blue cells overexpressing human TLR8, stimulated with R848 15.9 μM; read-out: TLR 8 IC50
T2 construct: host or cells: HEK-Blue cells (HEK293-derived reporter line)
T2 sequence (Q9NR97 27-1041): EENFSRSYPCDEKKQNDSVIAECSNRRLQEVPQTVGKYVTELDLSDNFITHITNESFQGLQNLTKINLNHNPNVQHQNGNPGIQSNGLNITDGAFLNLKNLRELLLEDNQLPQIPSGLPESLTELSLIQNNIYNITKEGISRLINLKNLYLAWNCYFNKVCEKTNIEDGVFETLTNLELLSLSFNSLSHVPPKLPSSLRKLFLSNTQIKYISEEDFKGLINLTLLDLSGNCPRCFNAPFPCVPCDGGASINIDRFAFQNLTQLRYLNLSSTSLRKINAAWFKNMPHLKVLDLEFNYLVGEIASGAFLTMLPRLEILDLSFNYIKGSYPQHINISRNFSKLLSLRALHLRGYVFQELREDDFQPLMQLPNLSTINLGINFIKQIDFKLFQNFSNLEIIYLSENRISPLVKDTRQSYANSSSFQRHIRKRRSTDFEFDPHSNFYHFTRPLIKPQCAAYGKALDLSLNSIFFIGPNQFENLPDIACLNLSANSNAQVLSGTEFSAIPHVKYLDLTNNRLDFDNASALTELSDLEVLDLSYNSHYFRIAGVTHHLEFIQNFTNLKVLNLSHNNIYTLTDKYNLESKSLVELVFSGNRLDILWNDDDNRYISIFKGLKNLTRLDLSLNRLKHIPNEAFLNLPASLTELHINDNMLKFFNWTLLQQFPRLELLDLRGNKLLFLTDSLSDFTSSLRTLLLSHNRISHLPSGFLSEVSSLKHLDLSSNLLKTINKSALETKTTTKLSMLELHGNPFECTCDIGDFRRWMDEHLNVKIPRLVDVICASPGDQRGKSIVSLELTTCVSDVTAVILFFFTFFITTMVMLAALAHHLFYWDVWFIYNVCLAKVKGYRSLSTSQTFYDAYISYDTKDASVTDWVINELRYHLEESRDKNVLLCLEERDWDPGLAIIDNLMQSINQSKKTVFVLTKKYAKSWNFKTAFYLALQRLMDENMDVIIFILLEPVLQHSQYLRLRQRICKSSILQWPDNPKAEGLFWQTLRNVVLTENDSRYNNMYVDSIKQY
Procedure, shortened: as §1

human TLR7 = molecular target: T3, human TLR7 (Homo sapiens, UniProt Q9NYK1); experiment: TLR7 inhibition reporter assay (HEK-Blue cells, secreted embryonic alkaline phosphatase reporter); conditions: HEK-Blue cells overexpressing human TLR7, stimulated with gardiquimod 7.5 μM; read-out: TLR 7 IC50
T3 construct: host or cells: HEK-Blue cells (HEK293-derived reporter line)
T3 sequence (Q9NYK1 27-1049): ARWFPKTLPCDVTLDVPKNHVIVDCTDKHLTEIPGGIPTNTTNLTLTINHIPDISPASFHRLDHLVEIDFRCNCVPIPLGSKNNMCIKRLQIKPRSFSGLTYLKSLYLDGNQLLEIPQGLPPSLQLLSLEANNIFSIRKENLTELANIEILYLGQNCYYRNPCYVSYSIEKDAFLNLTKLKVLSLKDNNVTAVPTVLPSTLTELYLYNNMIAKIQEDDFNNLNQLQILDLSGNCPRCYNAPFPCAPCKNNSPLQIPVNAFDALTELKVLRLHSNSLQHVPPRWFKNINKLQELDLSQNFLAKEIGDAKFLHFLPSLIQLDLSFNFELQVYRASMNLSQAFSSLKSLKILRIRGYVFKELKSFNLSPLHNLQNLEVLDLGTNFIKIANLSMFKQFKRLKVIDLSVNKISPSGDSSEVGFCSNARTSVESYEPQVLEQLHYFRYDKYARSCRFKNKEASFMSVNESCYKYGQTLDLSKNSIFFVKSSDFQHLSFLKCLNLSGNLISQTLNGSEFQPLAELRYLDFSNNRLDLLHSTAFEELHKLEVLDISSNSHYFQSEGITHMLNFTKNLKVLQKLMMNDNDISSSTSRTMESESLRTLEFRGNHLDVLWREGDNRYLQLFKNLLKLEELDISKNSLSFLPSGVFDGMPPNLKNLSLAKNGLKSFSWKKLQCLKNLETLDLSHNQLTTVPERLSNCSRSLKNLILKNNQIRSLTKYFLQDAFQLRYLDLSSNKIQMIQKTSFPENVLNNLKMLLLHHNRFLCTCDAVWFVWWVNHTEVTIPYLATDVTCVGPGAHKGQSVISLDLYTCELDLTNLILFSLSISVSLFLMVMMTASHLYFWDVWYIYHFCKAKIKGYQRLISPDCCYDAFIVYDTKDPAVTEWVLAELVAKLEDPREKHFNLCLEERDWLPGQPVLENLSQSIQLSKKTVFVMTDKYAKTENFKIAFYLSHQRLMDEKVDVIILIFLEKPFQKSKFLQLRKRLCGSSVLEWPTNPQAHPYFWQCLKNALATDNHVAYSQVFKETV
Procedure, shortened: as §1

[1] = HEK-Blue cells overexpressing human TLR9, stimulated with ODN2006 5 nM, read-out: TLR 9 IC50
[2] = HEK-Blue human TLR9 reporter cells
[3] = HEK-Blue cells overexpressing human TLR9, stimulated with ODN2006 5 nM, 22 hour incubation, reporter readout

| Compound | IC50 (human TLR9; [1]) | IC50 (human TLR9; [2]) | IC50 (human TLR8) | IC50 (human TLR7) | IC50 (human TLR9) | IC50 (human TLR9; [3]) |
| --- | --- | --- | --- | --- | --- | --- |
| CS(=O)(=O)c1ccc(-c2nc3ccc(C4CCN(C5CCN(CC6CC6)CC5)CC4)c(F)c3[nH]2)cc1 [Example 179, 6-(1′-(cyclopropylmethyl)-[1,4′-bipiperidin]-4-yl)-7-fluoro-2-(4-(methylsulfonyl)phenyl)-1H-benzo[d]imidazole] | 184 nM |  | > 50000 nM | > 50000 nM | 180 nM |  |
| Cn1c(-c2ccc(S(C)(=O)=O)cc2)nc2c(F)c(C3CCN(C4CC5CCC(C4)N5C4CCOCC4)CC3)ccc21 (centres unmarked) [Example 198, 4-fluoro-1-methyl-2-(4-(methylsulfonyl)phenyl)-5-(1-(8-(tetrahydro-2H-pyran-4-yl)-8-azabicyclo[3.2.1]octan-3-yl)piperidin-4-yl)-1H-benzo[d]imidazole] | 57 nM |  | > 50000 nM | > 50000 nM | 57 nM |  |
| Cc1cc(C2CCN(C3CCN(C(C)C)CC3)CC2)cc2c1nc(-c1ccc(S(N)(=O)=O)cc1)n2C [Example 112, 4-(6-(1′-isopropyl-[1,4′-bipiperidin]-4-yl)-1,4-dimethyl-1H-benzo[d]imidazol-2-yl)benzenesulfonamide] | 127 nM |  | > 50000 nM | > 50000 nM |  | 130 nM |
| Cc1cc(-c2nc3c(C)cc(C4CCN(C5CCN(CC(C)C)CC5)CC4)cc3[nH]2)cc(C)n1 [Example 60, 2-(2,6-dimethylpyridin-4-yl)-6-(1′-isobutyl-[1,4′-bipiperidin]-4-yl)-4-methyl-1H-benzo[d]imidazole] | 45 nM |  | > 50000 nM | 1500 nM |  | 45 nM |
| Cn1c(-c2ccc(S(C)(=O)=O)cc2)nc2c(F)c(C3CCN(C4CC5CCC(C4)N5C4CCOCC4)CC3)ccc21 (centres unmarked) [Example 197, 4-fluoro-1-methyl-2-(4-(methylsulfonyl)phenyl)-5-(1-(8-(tetrahydro-2H-pyran-4-yl)-8-azabicyclo[3.2.1]octan-3-yl)piperidin-4-yl)-1H-benzo[d]imidazole] | 155 nM |  | > 50000 nM | > 50000 nM | 160 nM |  |
| Cn1c(-c2ccc(S(C)(=O)=O)cc2)nc2cc(F)c(C3CCN(C4CC5CCC(C4)N5CC4CC4)CC3)cc21 (centres unmarked) [Example 230, 6-(1-(8-(cyclopropylmethyl)-8-azabicyclo[3.2.1]octan-3-yl)piperidin-4-yl)-5-fluoro-1-methyl-2-(4-(methylsulfonyl)phenyl)-1H-benzo[d]imidazole] | 36 nM |  | > 50000 nM | 32400 nM | 36 nM |  |

The remaining lines, values ahead:

| IC50 (human TLR9; [1]) | IC50 (human TLR9; [2]) | IC50 (human TLR8) | IC50 (human TLR7) | IC50 (human TLR9) | IC50 (human TLR9; [3]) | Compound |
| --- | --- | --- | --- | --- | --- | --- |
| 123 nM | 120 nM | > 25000 nM | 12700 nM |  |  | Cc1cc(C2CCN(C3CC4CCC(C3)N4CC(C)C)CC2)cc2c1nc(-c1ccc(S(C)(=O)=O)c(F)c1)n2C (centres unmarked) [Example 342, 2-(3-fluoro-4-(methylsulfonyl)phenyl)-6-(1-(8-isobutyl-8-azabicyclo[3.2.1]octan-3-yl)piperidin-4-yl)-1,4-dimethyl-1H-benzo[d]imidazole] |
| 36 nM | 36 nM | > 50000 nM | 1900 nM |  |  | CS(=O)(=O)c1ccc(-c2nc3c(F)cc(C4CCN(C5CCN(C6CCOCC6)CC5)CC4)cc3n2C2CC2)cc1 [Example 321, 1-cyclopropyl-4-fluoro-2-(4-(methylsulfonyl)phenyl)-6-(1′-(tetrahydro-2H-pyran-4-yl)-[1,4′-bipiperidin]-4-yl)-1H-benzo[d]imidazole] |
| 46 nM | 47 nM | > 50000 nM | > 50000 nM |  |  | CC(C)CN1CCCC(N2CCC(c3ccc4nc(-c5ccc(S(C)(=O)=O)cc5)n(C)c4c3F)CC2)CC1 (centres unmarked) [Example 310, 7-fluoro-6-(1-(1-isobutylazepan-4-yl)piperidin-4-yl)-1-methyl-2-(4-(methylsulfonyl)phenyl)-1H-benzo[d]imidazole] |
| 5310 nM |  | > 50000 nM | > 50000 nM | 5300 nM |  | Cn1c(-c2ccc(S(C)(=O)=O)cc2)nc2cc(C3CCN(C4CC5CCC(C4)N5C4COC4)CC3)c(F)cc21 (single isomer, unassigned) [Example 254, 6-fluoro-1-methyl-2-(4-(methylsulfonyl)phenyl)-5-(1-(8-(oxetan-3-yl)-8-azabicyclo[3.2.1]octan-3-yl)piperidin-4-yl)-1H-benzo[d]imidazole] |
| 3570 nM |  | > 50000 nM | > 50000 nM | 3600 nM |  | Cn1c(-c2ccc(S(C)(=O)=O)cc2)nc2cc(C3CCN(C4CCN(C5COC5)CC4)CC3)c(F)cc21 [Example 244, 6-fluoro-1-methyl-2-(4-(methylsulfonyl)phenyl)-5-(1′-(oxetan-3-yl)-[1,4′-bipiperidin]-4-yl)-1H-benzo[d]imidazole] |
